US7355074B2, “Compounds having aromatic rings and side-chain amide-functionality and a method for transporting monovalent anions across biological membranes using the same” (The University of Maryland, priority 2003, dated 2008)

How the values were obtained:
[1] = voltage-clamp experiments on black lipid membranes; format: biochemical
Protocol: FIG. 10(A) represents current events across a BLM in voltage clamp experiments after application of calixarene tetrabutylamide 2 ([…]). The voltage applied was −20 mV for all three recordings. (B) The distribution of conductance ranges observed in voltage clamp experiments with 2 acting as an ion channel.
The voltage-clamp assay was conducted using a setup with two chambers, each filled with an electrolyte solution and separated by a BLM. After voltage was applied across the membrane, a solution of 2 was added to one of the chambers. Subsequent current across the membrane was attributed to ion transport mediated by 2, since control experiments wit DMSO solvent were negative. The abrupt changes in current intensity (events) are consistent with an ion channel mechanism. The relatively long-lasting open states indicate that channels formed by calixarene tetrabutylamide 2 are stable.
Voltage-Clamp Experiments. […] Once calixarene tetrabutylamide 2 was incorporated into the lipid, the current through the membrane was recorded using both a chart recorder and directly digitized and stored as a computer file. The conductance values were calculated by dividing the current by the applied voltage. The events were grouped into conductance ranges of equal magnitude for the purpose of showing the distribution of recorded conductances.

[2] = pH-stat fluorescent transport assay with oligophenoxyacetamides (HPTS-loaded liposomes); format: biochemical
Protocol: FIGS. 1A and 1B are derived from of pH-stat fluorescent assays with oligophenoxyacetamide compounds 1-6 described herein. Suspensions of EYPC LUVs containing the pH sensitive dye pyranine (ex 405 nm and 460 nm em 510 nm) in a phosphate buffer were used (0.5 mM of lipid, 10 mM NanH3-nPO4 n=1, 2, pH 6.4 100 mM NaCl inside and outside) (A) illustrates initial pseudo-first order rate constants in the presence of 5 μm of ionophores 1-6 (1 mol % injection of 20 μl of 0.5 mM DMSO solution of 1-6 into 1.9 mL of vesicular suspension was followed by injection of 21 μl of 0.5 M NaOH and final lysis of liposomes with Triton X-100; (B) illustrates initial pseudo-first order rate constants assessed for various concentrations of oligomeric ionophores 2-6. The same experimental protocol as in (A) was used. Legend for traces denotes use of oligocompounds 2, 3, 4, 5, 6.
Liposome Preparation for Fluorimetric Assays. Egg yolk L-α-phosphatidylcholine (EYPC ethanol solution, […], 79 μmol) was dissolved in a CHCl3/MeOH mixture, the solution was evaporated under reduced pressure and the resulting thin film was dried under high vacuum for 2 h. The lipid film was hydrated in 1.2 mL of phosphate buffer (10 mM sodium phosphate, pH=6.4, 75-100 mM MnX, M=N^+, K^+, X=Cl^−, SO4^2−, n=1,2) containing 10 μM HPTS (pyranine, 8-hydroxypyrene-1,3,6-trisulfonic acid trisodium salt) for 40 min. During hydration, the suspension was submitted to 5 freeze-thaw cycle (liquid nitrogen, water at rt). The large multilamellar liposome suspension (1 mL) was submitted to high-pressure extrusion at rt (21 extrusions through a 0.1 μm polycarbonate membrane afforded a suspension of LUVs with an average diameter of 100 nm). The LUV suspension was separated from extravesicular dye by size exclusion chromatography (SEC) (stationary phase: Sephadex G-10, mobile phase: phosphate buffer) and diluted with the same phosphate buffer to give a stock solution with a lipid concentration of 11 mM (assuming 100% of lipid was incorporated into liposomes).
pH-state transport assays. Typically, 100 μL of HPTS-loaded vesicles (stock solution) was suspended in 1.9 mL of the corresponding buffer and placed into a fluorimetric cell. The emission of HPTS at 510 nm was monitored with excitation wavelengths at 403 and 460 nm simultaneously. During the experiment, 20 μL of a 0-10 mM DMSO solution of the compounds of interest was added (through an injection port), followed by injection of 21 μL of 0.5 M aqueous NaOH. […] Maximal possible changes in dye emission were obtained at the end of each experiment by lysis of the liposomes with detergent (40 μL of 5% aqueous Triton X100). The final transport trace was obtained as a ratio of the emission intensities monitored at 460 and 403 nm and normalized to 100% of transport. Pseudo-first order rate constants were calculated from slopes of the plot of In([H^+ins]−[H^+out]) versus time, here [H^+ins] and [H^+out] are the intravesicular and extravesicular proton concentrations, respectively. The [H^+out] was assumed to remain constant over the course of the experiment, while [H^+ins] values were calculated for each point from the HPTS emission intensities according to the calibration equation pH=1.1684·log(Io/Il)+6.9807, where Io is the emission intensity with excitation at 460 nm and Il is emission intensity with excitation at 403 nm. The calibration was performed by measuring the HPTS emission intensities and the pH values of a […] HPTS solution in 10 mM phosphate buffer containing 100 mM NaCl (see FIG. s3). The absolute values for rate constants varied depending on the age of the vesicular solution and the actual stock solution of liposomes used.

Row | Compound | stability of the channels (open states) [1] | centre of the conductance distribution ([1]; 480 events, 1 M KCl) | relative transport activity within the series 1-6 ([2]; 100 mM NaCl inside and outside) | transport activity ([2]; 100 mM NaCl inside and outside, concentrations as low as 0.5 mol % (5 μm)) | transport activity in liposomes symmetrically loaded with sodium sulfate ([2]; 10 mol % (50 μm))
1 | CCCCNC(=O)COc1c2cccc1Cc1cccc(c1OCC(=O)NCCCC)Cc1cccc(c1OCC(=O)NCCCC)Cc1cccc(c1OCC(=O)NCCCC)C2 [calix[4]arene tetrabutylamide 2, Calix[4]arene tetrabutylamide] | stable | ~100 pS |  |  | 
2 | CCCCNC(=O)COc1ccccc1Cc1cccc(Cc2ccccc2OCC(=O)NCCCC)c1OCC(=O)NCCCC [trimer 3, Tris-(N-butyl-2-phenoxyacetamide)] |  |  | generally the most active | rapid exchange between extra- and intravesicular electrolytes | no transport activity was detected
